# Assay results from patent US7462592B2, “Compositions and methods for polynucleotide delivery” (Novartis Vaccines and Diagnostics, Inc., priority 1996, dated 2008).
# Tests used:
# [1] = Coulter N4MD submicron analyzer; Lee et al., 1996; cited from earlier work
# [2] = system: HT1080 and 293 cells; test: Effect of chloroquine on transfection (FIG. 9); format: cell-based, human; conditions: presence or absence of chloroquine
# Experimental: FIG. 9 illustrates the effect of chloroquine on transfection with RZ145-1 in (A) 293 cells and (B) HT1080 cells. The cells were transfected in the presence (black bar) or absence (stippled bar) of 100 uM chloroquine. Cells were lysed 48 hours post transfection and luciferase activity and total protein content were measured.
# To determine whether chloroquine affected transfection mediated by polycationic agents of the present invention, HT1080 and 293 cells were transfected using RZ145-1 in the presence and absence of chloroquine. As a control, the same cell lines were transfected with polylysine both in the presence and absence of chloroquine. […] In contrast, polylysine-mediated transfection in the absence of chloroquine was 100-fold lower than polylysine mediated transfection in the presence of chloroquine.
substance,measurement,setting,value
polylysine [reference compound],mean diameter of particles of condensed polynucleotide,[1],50-200 nm
same,"transfection in the absence of chloroquine relative to presence of chloroquine, fold lower",[2],100 fold
